This is an account of results in BindingDB's records for doi:10.1016/S0960-894X(00)80241-3 (1991).

The nature of this test: Inhibition of [14C]arachidonic acid conversion to 5-HETE by broken cell 5-lipoxygenase in vitro (guinea pig PMN).
For the molecule `COc1ccc2c(c1C(=O)NO)Nc1ccccc1O2` [2-Methoxy-10H-phenoxazine-1-carboxylic acid hydroxyamide], the 50% inhibitory concentration (IC50) was determined as 420 nM.
In turn, `COC(=O)c1cccc2c1Nc1ccccc1O2` [10H-Phenoxazine-1-carboxylic acid methyl ester] gave an IC50 of 770 nM.
`O=C(O)c1cccc2c1Nc1ccccc1O2` [10H-Phenoxazine-1-carboxylic acid] showed an IC50 of 610 nM.
Then `CN(O)C(=O)c1ccc2c(c1)Nc1ccccc1O2` [10H-Phenoxazine-2-carboxylic acid hydroxy-methyl-amide], with 87 nM; and `COC(=O)c1ccc2c(c1)Nc1ccccc1O2` [10H-Phenoxazine-2-carboxylic acid methyl ester], with 65 nM.
As for `O=C(O)c1ccc2c(c1)Nc1ccccc1O2` [10H-Phenoxazine-2-carboxylic acid], 4600 nM corresponded to half-maximal inhibition (IC50).
Molecule `c1ccc2c(c1)Nc1ccccc1O2` [10H-Phenoxazine] displayed an IC50 of 20 nM.
In the case of `CCOC(=O)/C=C/c1ccc2c(c1)Nc1ccccc1O2` [(E)-3-(10H-Phenoxazin-2-yl)-acrylic acid ethyl ester] it was 35 nM; in that of `O=C(O)/C=C/c1ccc2c(c1)Nc1ccccc1O2` [(E)-3-(10H-Phenoxazin-2-yl)-acrylic acid], 1200 nM.
On to `CN(O)C(=O)/C=C/c1ccc2c(c1)Nc1ccccc1O2` [(E)-N-Hydroxy-N-methyl-3-(10H-phenoxazin-2-yl)-acrylamide], for which half-maximal inhibition (IC50) was put at 85 nM.
